This is an account of results in patent publication US20030092759A1, “Anticonvulsant derivatives useful for the treatment of restless limb syndrome and periodic limb movement disorder” (priority 2001, published 2003).

A short description of data set [1]: side effects reported in the clinical case studies. The data set is classed as in vivo, human. The note with it: Example 2, person; 5 mg/day for the RLS.
Data set [2] deals with restless legs syndrome (RLS). The data set can be described thus: clinical case studies of patients with restless legs syndrome. The data set is classed as in vivo, human. The note with it: for benefit in controlling the RLS, earlier treatment: used in the previous 15 years; for benefit of earlier treatment of the RLS: before topiramate. As to the method:
The ability of the compounds of formula I to treat restless legs syndrome, restless arm syndrome and associated sleep disorders is based on the results of recent clinical case studies, as described in more detail below.
(§1) Prior to treatment, within 15 minutes of falling asleep, the patient was awakened by uncontrollable jerking of their legs. […] The patient had also used lorazepam and alprazolam to treat the RLS, with some benefit.
(§2) The patient was switched to topiramate, initially at 25 mg, with a gradual increase in dosage to 75 mg/day for treatment of the RLS. Sertraline HCl at 100 mg/day was added for the treatment of their concurrent depression. Lorazepam and alprazolam were discontinued. The RLS and depression symptoms were both reduced.
In the previous 15 years, the patient had also used carisoprodol, chlordiazepoxide HCl, clorazepate dipotassium, meprobamate, phenobarbital, flurazepam HCl, promethazine, levodopa and carbidopa, with some benefit in controlling the RLS.
Topiramate was started at 25 mg/day and increased gradually to 300 mg/day during a six month period.
The patient was a person, with diagnosed recurrent unipolar depression, post traumatic stress disorder, panic disorder, nicotine, alcohol and cannabis dependency. The patient also complained of migraine headaches and restless leg syndrome.
The patient was started at 25 mg HS topiramate, with dosage increased to 100 mg HS and then further increased to a final dosage of 200 mg HS. Concurrent pharmacotherapy included clonazepam at 2 mg/day, desipramine HCl at 10 mg/day, clonidine at […] b.i.d., mirtazepine at 15 mg HS, triamcinolone acetonide prn, albuterol prn, potassium at […], A to Z multivitamin 1×/day and fluticasone propionate prn.

In a further data set the test system is depression. The data set is described as follows: clinical case study, concurrent depression (Example 1). The data set is classed as in vivo, human. The note with it: Example 1, patient; sertraline HCl 100 mg/day added to topiramate 75 mg/day. As to the method: as §1, §2
For the next data set, the system named is RLS symptoms. The note with it: case study report, Hargrave and Beckley 1998; cited from earlier work.
Another data set deals with kindled epilepsy. The note with it: animal model of kindled epilepsy; cited from earlier work.
For the next data set, the system named is seizures. The note with it: several rodent models of epilepsy; cited from earlier work.
In data set [3] the test system is simple and complex partial seizures and secondarily generalized seizures. The note with it: adjunctive therapy or monotherapy; cited from earlier work.

Where a name gives a salt, the structure may show the parent alone.

For `OC(CCN1CCCCC1)(c1ccccc1)C1CCCCC1` (stereo not shown) [trixenryphenidyl], in data set [1], the side effects result is “dry mouth, blurred vision and amnesia”.
For the compound `O=C(O)C1N=C(c2ccccc2)c2cc(Cl)ccc2NC1=O` (stereo not shown) [clorazepate dipotassium], the “benefit in controlling the RLS, earlier treatment” value (“benefit in controlling the RLS” below) in data set [2] (Example 2, person) is listed as “some benefit”.
Take `Cc1nnc2n1-c1ccc(Cl)cc1C(c1ccccc1)=NC2` [alprazolam]: the “benefit of earlier treatment of the RLS” value in data set [2] (Example 1, patient) is “some benefit”.
Consider `O=C1CN=C(c2ccccc2Cl)c2cc([N+](=O)[O-])ccc2N1` [clonazepam], for which, in data set [2] (Example 2, person, 2-4 mg/day), the “effect on the RLS symptoms” value is listed as “very little positive effect”.
Regarding `C[C@@](Cc1ccc(O)c(O)c1)(NN)C(=O)O` [carbidopa], the “benefit in controlling the RLS” value in data set [2] (Example 2, person) was “some benefit”.
The same measure, in the same setting: the value for `CCN(CC)CCN1C(=O)CN=C(c2ccccc2F)c2cc(Cl)ccc21` [flurazepam HCl] was “some benefit”.
For the compound `CN[C@H]1CC[C@@H](c2ccc(Cl)c(Cl)c2)c2ccccc21` [Sertraline HCl], in the data set with depression, the depression symptoms result is “reduced”. In addition, the “change of RLS symptoms associated with the drug” value in the data set on RLS symptoms is “increase in RLS symptoms”.
Turning to `CC(CN1c2ccccc2Sc2ccccc21)N(C)C` (stereo not shown) [promethazine], the “benefit in controlling the RLS” value in data set [2] (Example 2, person) was “some benefit”.
Turning to `CCCC(C)(COC(N)=O)COC(N)=O` [meprobamate], in data set [2] (Example 2, person), the “benefit in controlling the RLS” value was “some benefit”.
Regarding `CCCC(C)(COC(N)=O)COC(=O)NC(C)C` (stereo not shown) [carisoprodol], in data set [2] (Example 2, person), the “benefit in controlling the RLS” value was “some benefit”.
As to `O=C1Nc2ccc(Cl)cc2C(c2ccccc2Cl)=NC1O` (stereo not shown) [lorazepam], in data set [2] (Example 1, patient), the “benefit of earlier treatment of the RLS” value is “some benefit”.
Take `CNC1=Nc2ccc(Cl)cc2C(c2ccccc2)=[N+]([O-])C1` [chlordiazepoxide HCl]: the “benefit in controlling the RLS” value in data set [2] (Example 2, person) is on record as “some benefit”.
As for `CC1(C)O[C@@H]2[C@@H](CO[C@@]3(COS(N)(=O)=O)OC(C)(C)O[C@@H]23)O1` [topiramate, 2,3:4,5-bis-O-(1-methylethylidene)-β-D-fructopyranose sulfamate], the RLS symptoms entry in data set [2] (Example 1, patient, topiramate 25 mg increased to 75 mg/day, with sertraline HCl 100 mg/day, lorazepam and alprazolam discontinued) is “reduced”. In data set [2] (Example 2, person, 25 mg/day increased to 300 mg/day during six months), the “restless legs syndrome symptoms, patient report” value was “successfully reduced”. Further, the “effectiveness for RLS compared with carisoprodol, patient report” value in data set [2] (Example 3, person) is reported as “more effective than carisoprodol”. For the same compound, the “effectiveness for RLS of topiramate and clonazepam in combination, patient report” value in data set [2] (Example 3, person, the two drugs in combination) is recorded as “more effective than either drug alone”. Further, the “effectiveness for restless leg syndrome compared with clonazepam 6 mg HS, patient report” value in data set [2] (Example 3, person, topiramate 100 mg HS) is reported as “as effective as clonazepam 6 mg HS”. Further, the block of seizures entry in the data set on kindled epilepsy and with seizures was “effectively block seizures” throughout. Also, the “efficacy in treating seizures in clinical trials” value in data set [3] is “effective”.
Take `N[C@@H](Cc1ccc(O)c(O)c1)C(=O)O` [levodopa]: the “benefit in controlling the RLS” value in data set [2] (Example 2, person) was “some benefit”.
